Results published in paper PMC8119466, “A screen of FDA-approved drugs identifies inhibitors of protein tyrosine phosphatase 4A3 (PTP4A3 or PRL-3)” (Scientific Reports, 2021).
Structures can show the parent of a compound that is named as a salt. Residues, ends and D or L forms follow the SMILES beside them.

Tests used:
Assay type in all cases: biochemical
Conditions in all cases: FDA-approved drug screen; compared to DMSO
recombinant PRL-1 = molecular target: T1, recombinant PRL-1 (Homo sapiens, UniProt Q93096); assay: In vitro phosphatase assay (DiFMUP hydrolysis), PRL-1; note: test concentration or dose not given here
T1 construct: 6xHis (N, cleaved yes); made in house; host or cells: E. coli One Shot BL21 Star
T1 sequence (Q93096 1-173): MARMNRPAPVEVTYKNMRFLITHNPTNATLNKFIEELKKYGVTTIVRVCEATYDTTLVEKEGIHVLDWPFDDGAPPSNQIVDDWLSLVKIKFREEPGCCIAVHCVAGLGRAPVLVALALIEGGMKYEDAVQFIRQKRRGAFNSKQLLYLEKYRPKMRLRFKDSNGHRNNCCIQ

recombinant PRL-2 = molecular target: T2, recombinant PRL-2 (Homo sapiens, UniProt Q12974); assay: In vitro phosphatase assay (DiFMUP hydrolysis), PRL-2;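 note: PRL-2 activity read as DiFMUP hydrolysis after 20 min at room temperature with drug, enzyme first pre-reduced at 4 °C for 20 min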
T2 construct: 6xHis (N, cleaved yes); made in house; host or cells: E. coli One Shot BL21 Star
T2 sequence (Q12974 1-167): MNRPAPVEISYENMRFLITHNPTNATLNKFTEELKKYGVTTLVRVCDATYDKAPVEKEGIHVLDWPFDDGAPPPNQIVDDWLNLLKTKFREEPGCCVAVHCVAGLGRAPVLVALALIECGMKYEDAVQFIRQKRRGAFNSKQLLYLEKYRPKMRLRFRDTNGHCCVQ

recombinant PRL-3 = molecular target: T3, recombinant PRL-3 (Homo sapiens, UniProt O75365); assay: In vitro phosphatase assay (DiFMUP hydrolysis), PRL-3; note: test concentration or dose not given here
T3 construct: 6xHis (N, cleaved yes); made in house; host or cells: E. coli One Shot BL21 Star
T3 sequence (O75365 whole entry): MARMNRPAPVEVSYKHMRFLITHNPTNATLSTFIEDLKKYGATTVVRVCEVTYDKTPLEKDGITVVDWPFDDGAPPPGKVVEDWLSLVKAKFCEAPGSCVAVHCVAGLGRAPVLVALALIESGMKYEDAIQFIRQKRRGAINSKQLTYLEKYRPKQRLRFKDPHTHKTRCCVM

| Compound | % Phosphatase Activity (compared to DMSO) PRL-1 (recombinant PRL-1) [%] | % Phosphatase Activity (compared to DMSO) PRL-2 (recombinant PRL-2) [%] | % Phosphatase Activity (compared to DMSO) PRL-3 (recombinant PRL-3) [%] |
| --- | --- | --- | --- |
| CC1CNc2c(cccc2S(=O)(=O)N[C@@H](CCCNC(=N)N)C(=O)N2CC[C@@H](C)C[C@@H]2C(=O)O)C1 (stereo partly drawn) [Argatroban] | 104 | 100 | 80 |
| O=C1CCc2ccc(OCCCCN3CCN(c4cccc(Cl)c4Cl)CC3)cc2N1 [Aripiprazole] | 100 | 111 | 103 |
| NC(=O)C[S@@+]([O-])C(c1ccccc1)c1ccccc1 [Armodafinil] | 94 | 90 | 73 |
| CO[C@H]1O[C@@H]2O[C@@]3(C)CC[C@H]4[C@H](C)CC[C@@H]([C@H]1C)[C@@]24OO3 [Artemether] | 87 | 96 | 85 |
| C[C@@H]1CC[C@H]2[C@@H](C)C(=O)O[C@@H]3O[C@@]4(C)CC[C@@H]1[C@]32OO4 [Artemisinin] | 100 | 90 | 80 |
| CCCNC(C)C(=O)Nc1c(C)csc1C(=O)OC (stereo not drawn) [Articaine HCl] | 110 | 109 | 84 |
| CN1CC2c3ccccc3Oc3ccc(Cl)cc3C2C1 (stereo not drawn) [Asenapine] | 98 | 107 | 79 |
| COC(=O)[C@H](Cc1ccccc1)NC(=O)[C@@H](N)CC(=O)O [Aspartame] (H-Asp-Phe-OMe) | 92 | 95 | 85 |
| CC(=O)Oc1ccccc1C(=O)O [Aspirin] | 126 | 110 | 102 |
| COC(=O)N[C@H](C(=O)N[C@@H](Cc1ccccc1)[C@@H](O)CN(Cc1ccc(-c2ccccn2)cc1)NC(=O)[C@@H](NC(=O)OC)C(C)(C)C)C(C)(C)C.O=S(=O)(O)O [Atazanavir Sulfate] | 95 | 83 | 83 |
| COC(=O)N[C@H](C(=O)N[C@@H](Cc1ccccc1)[C@@H](O)CN(Cc1ccc(-c2ccccn2)cc1)NC(=O)[C@@H](NC(=O)OC)C(C)(C)C)C(C)(C)C [Atazanavir] | 94 | 89 | 85 |
| CCC1(c2cnc[nH]2)Cc2ccccc2C1.Cl [Atipamezole hydrochloride] | 98 | 106 | 88 |
| CCC1(c2cnc[nH]2)Cc2ccccc2C1 [Atipamezole] | 94 | 109 | 87 |
| CNCC[C@@H](Oc1ccccc1C)c1ccccc1 [Atomoxetine HCl] | 98 | 109 | 89 |
| CC(C)c1c(C(=O)Nc2ccccc2)c(-c2ccccc2)c(-c2ccc(F)cc2)n1CC[C@@H](O)C[C@@H](O)CC(=O)O [Atorvastatin Calcium] | 100 | 87 | 74 |
| O=C1C(O)=C([C@H]2CC[C@H](c3ccc(Cl)cc3)CC2)C(=O)c2ccccc21 [Atovaquone] | 96 | 88 | 90 |
| COc1ccc(CC2c3cc(OC)c(OC)cc3CC[N+]2(C)CCC(=O)OCCCCCOC(=O)CC[N+]2(C)CCc3cc(OC)c(OC)cc3C2Cc2ccc(OC)c(OC)c2)cc1OC (stereo not drawn) [Atracurium Besylate] | 99 | 101 | 101 |
| NC(=O)[C@@H](CCC(F)(F)F)N(Cc1ccc(-c2ncon2)cc1F)S(=O)(=O)c1ccc(Cl)cc1 [Avagacestat (BMS-708163)] | 89 | 85 | 73 |
